Measured values: ChEMBL document CHEMBL1275599, “Comparison of in vitro activities of fluoroquinolone-like 2,4- and 1,3-diones” (Antimicrob Agents Chemother, 2010)
≈ marks a conversion by molar mass, not a printed value.

Tests used:
[1] = Inhibition of DNA supercoiling activity of Escherichia coli DNA gyrase
[2] = Inhibition of DNA decatenation activity of Escherichia coli DNA topoisomerase 4
[3] = Inhibition of DNA decatenation activity of Staphylococcus aureus DNA topoisomerase 4
DNA gyrase subunit A [4] = target: DNA gyrase subunit A (Escherichia coli K-12, UniProt P0AES4, S83W); assay: Inhibition of DNA supercoiling activity of Escherichia coli DNA gyrase gyrA S83W mutant
DNA gyrase subunit A [5] = target: DNA gyrase subunit A (Escherichia coli K-12, UniProt P0AES4, A67S); assay: Inhibition of DNA supercoiling activity of Escherichia coli DNA gyrase gyrA A67S mutant
DNA gyrase subunit A [6] = target: DNA gyrase subunit A (Escherichia coli K-12, UniProt P0AES4, G81C); assay: Inhibition of DNA supercoiling activity of Escherichia coli DNA gyrase gyrA G81C mutant
Escherichia coli [7] = assay: Selectivity ratio of IC50 for Escherichia coli DNA gyrase gyrA S83W mutant to IC50 for Escherichia coli wild-type DNA gyrase
Escherichia coli [8] = assay: Selectivity ratio of IC50 for Escherichia coli DNA gyrase gyrA G81C mutant to IC50 for Escherichia coli wild-type DNA gyrase
Escherichia coli [9] = assay: Selectivity ratio of IC50 for Escherichia coli DNA gyrase gyrA A67S mutant to IC50 for Escherichia coli wild-type DNA gyrase
Escherichia coli [10] = assay: Ratio of CC3 for Escherichia coli DNA gyrase gyrA S83W mutant to CC3 for Escherichia coli wild-type DNA gyrase
Escherichia coli [11] = assay: Ratio of CC3 for Escherichia coli DNA gyrase gyrA A67S mutant to CC3 for Escherichia coli wild-type DNA gyrase
Escherichia coli [12] = assay: Ratio of CC3 for Escherichia coli DNA gyrase gyrA G81C mutant to CC3 for Escherichia coli wild-type DNA gyrase
DNA gyrase = DNA gyrase (Staphylococcus aureus, UniProt P0A0K8+P20831); assay: Inhibition of DNA supercoiling activity of Staphylococcus aureus DNA gyrase; format: protein-complex assay
Escherichia coli [13] = assay: Selectivity index, ratio of IC50 for Escherichia coli Topoisomerase 4 to IC50 for Escherichia coli DNA gyrase
Staphylococcus aureus = assay: Selectivity index, ratio of IC50 for Staphylococcus aureus Topoisomerase 4 to IC50 for Staphylococcus aureus DNA gyrase
Escherichia coli [14] = assay: Antimicrobial activity against Escherichia coli; format: functional

Compound	IC50 [1] [nM]	IC50 [2] [nM]	IC50 [3] [nM]	IC50 (DNA gyrase subunit A [4]) [nM]	IC50 (DNA gyrase subunit A [5]) [nM]	IC50 (DNA gyrase subunit A [6]) [nM]	Ratio IC50 (Escherichia coli [7])	Ratio IC50 (Escherichia coli [8])	Ratio IC50 (Escherichia coli [9])	Ratio (Escherichia coli [10])	Ratio (Escherichia coli [11])	Ratio (Escherichia coli [12])	IC50 (DNA gyrase) [nM]	Ratio IC50 (Escherichia coli [13])	Ratio IC50 (Staphylococcus aureus)	MIC (Escherichia coli [14]) [µg/mL]
O=C(O)c1cn(C2CC2)c2cc(N3CCNCC3)c(F)cc2c1=O [CIPROFLOXACIN]	450	15900	8800	–	–	–	–	–	–	–	–	–	–	–	–	–
CC[C@@H]1CCN(c2c(F)cc3c(=O)n(N)c(=O)n(C4CC4)c3c2C)C1	950	6000	880	3800	1200	1700	4	1.8	1.3	5.6	2.5	3.1	1600	6.3	1.8	–
CC[C@@H]1CCN(c2c(F)cc3c(=O)n(N)c(=O)n(C4CC4)c3c2OC)C1	2800	16000	5500	5900	2400	4300	2.1	1.5	0.86	2.1	1.7	2.3	2300	5.7	2.4	2.5 (≈ 6.9 µM)
CC[C@@H]1CCN(c2c(F)cn3c(=O)n(N)c(=O)c(C4CC4)c3c2OC)C1	11000	163000	48000	67000	19000	31000	6.1	2.8	1.7	3.4	1.5	2.3	36500	14.8	1.3	–
CC[C@@H]1CCN(c2c(F)cc3c(=O)c(C(=O)O)cn(C4CC4)c3c2OC)C1	160	1700	500	1400	120	1200	8.8	7.5	0.75	6.5	1.5	13	1100	10.6	2.2	0.004 (≈ 0.0107 µM)
